According to patent publication US6737058B2, “Methods for inhibiting endothelial cell and fibrinogen mediated inflammation using fibrinogen specific antibodies” (The Scripps Research Institute, priority 1992, dated 2004):

What was measured:
HUVEC [1] = assay: Iodinated D30 binding to HUVEC monolayers and its competition; set-up: species or system human; details: 50 fold molar excess of cold fibrinogen; myoglobin as nonspecific protein
Procedure: Binding assays described above in Example 3A2) were also performed with the fibrinogen homolog, D30, to determine if that region of fibrinogen also immunoreacted with HUVEC. Since D30 was known to bind to leukocytes via the Mac-1 receptor as described by Altieri et al., J. Biol. Chem., 265:12119-12122 (1990), these experiments were performed to determine if regions of fibrinogen mediating the binding of leukocytes to HUVEC are contained within the D30 fragment. For this analysis, the D30 fragment of fibrinogen prepared in Example 1B was labelled with ^125I as described for labelling of fibrinogen above. Iodinated D30 was admixed to HUVEC monolayers at a concentration of 10 μg/ml to form a binding complex. After washing the cells to remove the unbound D30 as described in Example 3A2) above, the cells were solubilized and the amount of bound radioactivity was determined. The binding of D30 to HUVEC was maximal at 120 minutes of the maintenance period with approximately 60,000 cpm.

[2] = test system: TNF or LPS-stimulated HUVEC; assay: 125I-labelled fibrinogen binding to TNF- or LPS-stimulated HUVEC; set-up: species or system human; details: TNF 5 ng/ml or LPS 1.0 μg/ml, 4 hours at 37° C.
Procedure: To determine the effect that known stimulators of HUVEC have on the binding characteristics of fibrinogen to HUVEC, dose-response experiments were performed as described in Example 3A2) on untreated HUVEC and TNF or lipopolysaccharide (LPS, Genzyme))-stimulated HUVEC. TNF and LPS were separately admixed at the respective concentrations of 5 nanograms (ng)/ml and 1.0 μg/ml to monolayers of HUVEC and maintained at 37° C. for 4 hours prior to the admixture of the labelled fibrinogen ranging in concentration from 0.01 μM up to 0.36 μM.

HUVEC [3] = assay: Adhesion of terminally-differentiated 51Cr-labeled HL-60 cells to resting HUVEC with plasma adhesive proteins; assay type: cell-based, human; details: 150 μ/ml protein, fMLP 10 μM, 30 min at 22° C.
Procedure: The effect of fibrinogen, vitronectin, and fibronectin on the interaction of terminally-differentiated HL-60 and monocytic THP-1 cells with HUVEC was determined as described in Languino, supra. Briefly, serum-free suspensions of HL-60 or THP-1 cells were labeled with ^51Cr as described in Example 81A to a final incorporation of 0.2-4 cpm/cell. After washes in PBS, pH 7.2, aliquots of the HL-60 cells were resuspended in serum-free RPMI 1640 at 1.5×10^6/ml and stimulated with 10 μM of the chemoattractant formyl-methionyl-leucyl-phenylalanine (fMLP, Sigma, St. Louis, Mo.) and equilibrated with 150 μ/ml fibrinogen, vitronectin, or fibronectin in the presence of 1 mM CaCl2 for 20 min at 22° C. Equilibrated HL-60 were added to resting HUVEC monolayers that had been previously incubated with fresh complete culture medium 12 hours prior to the experiment and incubated for an additional 30 min at 22° C., washed,solubilized in 10-20% SDS, and associated radioactivity determined in a scintillation β-counter. The number of attached cells was quantitated by diving the cpm harvested by the cpm/cell. Under these experimental conditions, there was no aggregation of the various leukocyte subpopulations in the presence of the different plasma adhesive proteins, nor disruption of the HUVEC monolayers at any time interval tested, as judged by routine microscopic examination of the adhesion field. Data are the mean ± S.D. of triplicates from a representative experiment.
Experimental conditions were the same as described in Example 9C1 except that the ^51Cr-labeled HL-60 cells were equilibrated with 40 μg/ml vitronectin or control protein transferrin and added to resting HUVEC for increasing time intervals between 10 and 60 minutes at 22° C. before measurement of leukocyte adhesion.
Experimental conditions were the same as described in Example 9C1 except that the ^51Cr-labeled HL-60 cells were equilibrated with several concentrations of vitronectin ranging from 1.84 to 150 μg/ml and prior to incubation to resting HUVEC.

Substance: fibrinogen: fibrinogen isolated from fresh plasma by cold ethanol fractionation, fibronectin-free
- competition of D30 binding to HUVEC (HUVEC [1]): specifically competed
- labelled fibrinogen molecules bound per cell in comparison to unstimulated cells [2]: doubled
- adhesion of differentiated HL-60 cells to HUVEC relative to cells not equilibrated with an adhesive protein (HUVEC [3]): two to three-fold higher
